One compound from ChEMBL document CHEMBL5390263, “Direct evaluation of polarity of the ligand binding pocket in retinoid X receptor using a fluorescent solvatochromic agonist” (Bioorg Med Chem Lett, 2023) can be followed below.

The target of assay [1] is T1, Retinoic acid receptor RXR-alpha (Homo sapiens) (UniProt P19793).
T1 sequence (whole entry): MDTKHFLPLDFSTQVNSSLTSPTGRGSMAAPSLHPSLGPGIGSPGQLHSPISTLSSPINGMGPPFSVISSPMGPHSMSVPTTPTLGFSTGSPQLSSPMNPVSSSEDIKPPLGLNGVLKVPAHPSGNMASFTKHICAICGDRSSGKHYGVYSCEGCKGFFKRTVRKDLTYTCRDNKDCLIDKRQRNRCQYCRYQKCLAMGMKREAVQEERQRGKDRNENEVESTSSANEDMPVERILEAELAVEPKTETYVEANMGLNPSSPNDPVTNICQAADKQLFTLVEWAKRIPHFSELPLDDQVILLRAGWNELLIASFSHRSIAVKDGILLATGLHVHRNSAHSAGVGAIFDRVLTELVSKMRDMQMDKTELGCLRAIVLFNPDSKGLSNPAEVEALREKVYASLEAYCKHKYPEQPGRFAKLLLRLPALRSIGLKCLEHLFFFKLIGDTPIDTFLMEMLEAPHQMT
The assay is described as follows: Binding affinity to RXRalpha-LBD (unknown origin) assessed as fluorescence intensity by measuring maximum excitation wavelength from 382 to 440 nm at 5 to 20 uM in the presence of bexarotene by FRET assay. The settings on record: dose 5-20 µM.

The target in assay [2] is T1, Retinoic acid receptor RXR-alpha (Homo sapiens). The assay can be described thus: Binding affinity to RXR alpha-LBD (unknown origin) assessed as increase in fluorescence intensity up to 16 uM by FRET assay. The settings on record: filed as agonist.
The target is the same in assay [3]. The assay can be described thus: Binding affinity to RXRalpha-LBD (unknown origin) assessed as increase in fluorescence intensity by measuring maximum excitation of 440 nm wavelength at 16 uM by FRET assay. The settings on record: filed as agonist.
Assay [4] has the same target. The assay can be described thus: Binding affinity to RXRalpha-LBD (unknown origin) assessed as increase in fluorescence intensity by measuring maximum excitation wavelength from 382 to 440 nm by FRET assay. As to conditions: filed as agonist, dose <= 16.0 µM.
For assay [5], the target named is T2, Retinoic acid receptor RXR-alpha (Homo sapiens, UniProt P19793).
T2 sequence (P19793 whole entry): T1 sequence (whole entry)
The assay can be described thus: Binding affinity to RXRalpha-LBD (unknown origin) assessed as dissociation constant by FRET assay.

Assay [6] deals with T2, Retinoic acid receptor RXR-alpha. The assay can be described thus: Binding affinity to RXRalpha-LBP (unknown origin) assessed as dissociation constant by FRET assay.

Active and inactive are the calls of the source. The rule behind the calls is not given here.

As a reminder, the Kd is the free concentration of one partner at which half of the binding sites on the other are occupied at equilibrium, for simple one-to-one binding. As for `CCN(c1ccc2c(C(F)(F)F)cc(=O)n(CC(C)C)c2c1)c1ccc(C(=O)O)cn1`, the outcome in assay [1] was inactive. In addition, the result in assay [2] and in assay [3] was Active. For the same compound, the Activity entry in assay [4] is “Dose-Dependent Effect”. The Kd in assay [5] is 6.3 µM; in assay [6], 10.9 µM.
